According to patent US11053242B2, “[9,10-dimethoxy-3-(2-methylpropyl)-1H,2H,3H,4H,6H,7H,11BH-pyrido-[2,1-a]isoquinolin-2-yl]methanol and compounds, compositions and methods relating thereto” (Neurocrine Biosciences, Inc., priority 2015, dated 2021):

Columns and labels:
[1] = target: VMAT2 (human platelet homogenate) (Homo sapiens (Human), UniProt Q05940); assay: Human VMAT2 Ki, slightly modified competition binding procedure (Table 11); settings: 10 nM 3H-dihydrotetrabenazine;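 also: competition binding with 90 min incubation at 25 °C, after which filter-retained radioligand was measured by scintillation counting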
Protocol: Following incubation at 25° C. for 90 minutes, bound radioligand was collected by rapid filtration onto GF/B glass fiber filters using a Unifilter-96 Harvester (PerkinElmer). Filter plates were pre-treated with 0.1% polyethylenimine and allowed to dry overnight, and following harvesting the filter plates were washed with 800 d VMAT2 binding buffer. Bound radioligand was quantified by scintillation counting using a Topcount NXT (PerkinElmer).

[2] = In vitro human intestinal S9 hydrolysis assay (formation of compound 1-1); settings: human intestinal S9, 1 uM, 37° C., up to 60 minutes
Protocol: Compounds (1 uM) were incubated with pooled intestinal S9 subcellular preparations (0.5 mg/mL total protein) from SD rats and humans without the addition of protease inhibitor phenylmethylsulfonylflouride. Incubations were carried out in a potassium phosphate buffer (50 mM). All concentrations were relative to the final incubation volume of 125 uL. Incubations were conducted at 37° C. for 0, 5, 10, 20, 40 and 60 minutes in a water bath and terminated by rapid mixing with 150 uL of ice-cold acetonitrile containing 1% formic acid. Internal standard was added and proteins were precipitated and removed by centrifugation prior to LC/MS analysis.

VMAT2 (human platelet homogenate), sequence (Q05940 whole entry): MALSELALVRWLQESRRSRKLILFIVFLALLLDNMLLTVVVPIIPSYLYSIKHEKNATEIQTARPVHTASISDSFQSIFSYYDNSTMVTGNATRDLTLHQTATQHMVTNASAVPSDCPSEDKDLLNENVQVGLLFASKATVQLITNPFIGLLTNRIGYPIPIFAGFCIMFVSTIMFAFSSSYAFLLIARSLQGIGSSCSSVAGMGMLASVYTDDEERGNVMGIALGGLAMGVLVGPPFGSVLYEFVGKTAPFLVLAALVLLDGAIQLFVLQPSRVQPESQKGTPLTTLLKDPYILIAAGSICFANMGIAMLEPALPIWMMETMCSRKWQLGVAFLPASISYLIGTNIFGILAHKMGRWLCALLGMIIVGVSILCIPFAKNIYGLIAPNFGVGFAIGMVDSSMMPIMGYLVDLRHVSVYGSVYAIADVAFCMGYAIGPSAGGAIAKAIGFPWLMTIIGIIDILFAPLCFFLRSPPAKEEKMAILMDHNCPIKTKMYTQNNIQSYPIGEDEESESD

Row | SMILES | Ki [1] [nM] | S9 Assay (ability to form compound 1-1) [2]
1 | COc1cc2c(cc1OC)[C@H]1C[C@@H](COC(=O)C(C)(C)CC(=O)O)[C@H](CC(C)C)CN1CC2 [Compound 3-11] | > 500 | ++
2 | COc1cc2c(cc1OC)[C@H]1C[C@@H](COC(=O)N3CCOC(CC(=O)O)C3)[C@H](CC(C)C)CN1CC2 (stereo partly drawn) [Compound 5-6, 2-[4-({[(2R,3S,11bR)-9,10-dimethoxy-3-(2-methylpropyl)-1H,2H,3H,4H,6H,7H,11bH-pyrido[2,1-a]isoquinolin-2-yl]methoxy}carbonyl)morpholin-2-yl]acetic acid] | > 500 | +
3 | COc1cc2c(cc1OC)[C@H]1C[C@@H](COC(=O)NC3(C(=O)O)CC3)[C@H](CC(C)C)CN1CC2 [Compound 5-5, 1-[({[(2R,3S,11bR)-9,10-dimethoxy-3-(2-methylpropyl)-1H,2H,3H,4H,6H,7H,11bH-pyrido[2,1-a]isoquinolin-2-yl]methoxy}carbonyl)amino]cyclopropane-1-carboxylic acid] | 10 to 500 | +
4 | COc1cc2c(cc1OC)[C@H]1CC(COC(=O)CC(C)(C)C(=O)O)[C@H](CC(C)C)CN1CC2 (stereo partly drawn) [Compound 3-7, 4-{[(3S,11bR)-9,10-dimethoxy-3-(2-methylpropyl)-1H,2H,3H,4H,6H,7H,11bH-pyrido[2,1-a]isoquinolin-2-yl]methoxy}-2,2-dimethyl-4-oxobutanoic acid] | 10 to 500 | +
5 | COc1cc2c(cc1OC)[C@H]1C[C@@H](COC(=O)NCCCC(=O)O)[C@H](CC(C)C)CN1CC2 [Compound 5-3, 4-[({[(2R,3S,11bR)-9,10-dimethoxy-3-(2-methylpropyl)-1H,2H,3H,4H,6H,7H,11bH-pyrido[2,1-a]isoquinolin-2-yl]methoxy}carbonyl)amino]butanoic acid] | > 500 | +
6 | COc1cc2c(cc1OC)[C@H]1C[C@@H](COC(=O)CC(C)CC(=O)O)[C@H](CC(C)C)CN1CC2 (stereo partly drawn) [Compound 3-3, 5-{[(2R,3S,11bR)-9,10-dimethoxy-3-(2-methylpropyl)-1H,2H,3H,4H,6H,7H,11bH-pyrido[2,1-a]isoquinolin-2-yl]methoxy}-3-methyl-5-oxopentanoic acid] | 10 to 500 | +++
7 | COc1cc2c(cc1OC)[C@H]1C[C@@H](COC(=O)CC3CCCNC3)[C@H](CC(C)C)CN1CC2 (stereo partly drawn) [Compound 4-10, [(2R,3S,11bR)-9,10-dimethoxy-3-(2-methylpropyl)-1H,2H,3H,4H,6H,7H,11bH-pyrido[2,1-a]isoquinolin-2-yl]methyl 2-(piperidin-3-yl)acetate] | < 10 | ++
8 | COc1cc2c(cc1OC)[C@H]1C[C@@H](COC(=O)N3C[C@@H]4C[C@H]3CN4)[C@H](CC(C)C)CN1CC2 [Compound 6-10, [(2R,3S,11bR)-9,10-dimethoxy-3-(2-methylpropyl)-1H,2H,3H,4H,6H,7H,11bH-pyrido[2,1-a]isoquinolin-2-yI]methyl (1S,4S)-2,5-diazabicyclo[2.2.1]heptane-2-carboxylate] | < 10 | +
9 | COc1cc2c(cc1OC)[C@H]1C[C@@H](COC(=O)CC3(CC(=O)O)CCCC3)[C@H](CC(C)C)CN1CC2 [Compound 3-9] | 10 to 500 | ++
10 | COc1cc2c(cc1OC)[C@H]1C[C@@H](COC(=O)NC3C4CCC(C4)C3C(=O)O)[C@H](CC(C)C)CN1CC2 (stereo partly drawn) [Compound 5-40, 3-[({[(2R,3S,11bR)-9,10-dimethoxy-3-(2-methylpropyl)-1H,2H,3H,4H,6H,7H,11bH-pyrido[2,l-a]isoquinolin-2-yl]methoxy}carbonyl)amino]bicyclo[2.2.1]heptane-2-carboxylic acid] | 10 to 500 | +
11 | COc1cc2c(cc1OC)[C@H]1C[C@@H](COC(=O)C[C@@H]3CCCN3)[C@H](CC(C)C)CN1CC2 [Compound 4-36] | < 10 | +++
12 | COc1cc2c(cc1OC)[C@H]1C[C@@H](COC(=O)CC(C)(C)CC(=O)O)[C@H](CC(C)C)CN1CC2 [Compound 3-1, 5-{[(2R,3S,11bR)-9,10-dimethoxy-3-(2-methylpropyl)-1H,2H,3H,4H,6H,7H,11bH-pyrido[2,1-a]isoquinolin-2-yl]methoxy}-3,3-dimethyl-5-oxopentanoic acid] | > 500 | +

Continued, values first:

Row | Ki [1] [nM] | S9 Assay (ability to form compound 1-1) [2] | SMILES
13 | 10 to 500 | ++ | COc1cc2c(cc1OC)[C@H]1C[C@@H](COC(=O)N(C)CC(=O)O)[C@H](CC(C)C)CN1CC2 [Compound 5-42, 2-[({[(2R,3S,11bR)-9,10-dimethoxy-3-(2-methylpropyl)-1H,2H,3H,4H,6H,7H,11bH-pyrido[2,1-a]isoquinolin-2-yl]methoxy}carbonyl)(methyl)amino]acetic acid]
14 | > 500 | ++ | COc1cc2c(cc1OC)[C@H]1C[C@@H](COC(=O)N(C)C(CC(C)C)C(=O)O)[C@H](CC(C)C)CN1CC2 (stereo partly drawn) [Compound 5-46, 2-[({[(2R,3S,11bR)-9,10-dimethoxy-3-(2-methylpropyl)-1H,2H,3H,4H,6H,7H,11bH-pyrido[2,1-a]isoquinolin-2-yl]methoxy}carbonyl)(methyl)amino]-4-methylpentanoic acid]
15 | < 10 | + | COc1cc2c(cc1OC)[C@H]1C[C@@H](COC(=O)N3CC(C)NC(C)C3)[C@H](CC(C)C)CN1CC2 (stereo partly drawn) [Compound 6-11, [(2R,3S,11bR)-9,10-dimethoxy-3-(2-methylpropyl)-1H,2H,3H,4H,6H,7H,11bH-pyrido[2,1-a]isoquinolin-2-yl]methyl 3,5-dimethylpiperazine-1-carboxylate]
16 | 10 to 500 | + | COc1cc2c(cc1OC)[C@H]1C[C@@H](COC(=O)NCC3(CC(=O)O)CCCCC3)[C@H](CC(C)C)CN1CC2 [Compound 5-34, 2-(1-{[({[(2R,3S,11bR)-9,10-dimethoxy-3-(2-methylpropyl)-1H,2H,3H,4H,6H,7H,11bH-pyrido[2,1-a]isoquinolin-2-yl]methoxy}carbonyl)amino]methyl}cyclohexyl)acetic acid]
17 | > 500 | + | COc1cc2c(cc1OC)[C@H]1C[C@@H](COC(=O)N3CC(C(=O)O)C3)[C@H](CC(C)C)CN1CC2 [Compound 5-27, 1-({[(2R,3S,11bR)-9,10-dimethoxy-3-(2-methylpropyl)-1H,2H,3H,4H,6H,7H,11bH-pyrido[2,1-a]isoquinolin-2-yl]methoxy}carbonyl)azetidine-3-carboxylic acid]
18 | > 500 | + | COc1cc2c(cc1OC)[C@H]1C[C@@H](COC(=O)N3CCCC(C(=O)O)C3)[C@H](CC(C)C)CN1CC2 (stereo partly drawn) [Compound 5-14, 1-({[(2R,3S,11bR)-9,10-dimethoxy-3-(2-methylpropyl)-1H,2H,3H,4H,6H,7H,11bH-pyrido[2,1-a]isoquinolin-2-yl]methoxy}carbonyl)piperidine-3-carboxylic acid]
19 | < 10 | + | COc1cc2c(cc1OC)[C@H]1C[C@@H](COC(=O)N3CCN[C@H](C)C3)[C@H](CC(C)C)CN1CC2 [Compound 6-13, [(2R,3S,11bR)-9,10-dimethoxy-3-(2-methylpropyl)-1H,2H,3H,4H,6H,7H,11bH-pyrido[2,1-a]isoquinolin-2-yl]methyl (3R)-3-methylpiperazine-1-carboxylate]
20 | 10 to 500 | + | COc1cc2c(cc1OC)[C@H]1C[C@@H](COC(=O)NC3CCCCC3C(=O)O)[C@H](CC(C)C)CN1CC2 (stereo partly drawn) [Compound 5-41, 2-[({[(2R,3S,11bR)-9,10-dimethoxy-3-(2-methylpropyl)-1H,2H,3H,4H,6H,7H,11bH-pyrido[2,1-a]isoquinolin-2-yl]methoxy}carbonyl)amino]cyclohexane-1-carboxylic acid]
21 | > 500 | + | COc1cc2c(cc1OC)[C@H]1C[C@@H](COC(=O)NCC(=O)O)[C@H](CC(C)C)CN1CC2 [Compound 5-30]
22 | > 500 | + | COc1cc2c(cc1OC)[C@H]1C[C@@H](COC(=O)N[C@H]3[C@@H](C(=O)O)[C@H]4C=C[C@@H]3C4)[C@H](CC(C)C)CN1CC2 [Compound 5-9, (1R,2S,3R,4S)-3-[({[(2R,3S,11bR)-9,10-dimethoxy-3-(2-methylpropyl)-1H,2H,3H,4H,6H,7H,11bH-pyrido[2,1-a]isoquinolin-2-yl]methoxy}carbonyl)amino]bicyclo[2.2.1]hept-5-ene-2-carboxylic acid]
23 | 10 to 500 | + | COc1cc2c(cc1OC)[C@H]1C[C@@H](COC(=O)N3CCN[C@@H](C(=O)O)C3)[C@H](CC(C)C)CN1CC2 [Compound 6-8, (2R)-4-({[(2R,3S,11bR)-9,10-dimethoxy-3-(2-methylpropyl)-1H,2H,3H,4H,6H,7H,11bH-pyrido[2,1-a]isoquinolin-2-yl]methoxy}carbonyl)piperazine-2-carboxylic acid]
24 | > 500 | + | COc1cc2c(cc1OC)[C@H]1C[C@@H](COC(=O)NC(C)CC(=O)O)[C@H](CC(C)C)CN1CC2 (stereo partly drawn) [Compound 5-26, 3-[({[(2R,3S,11bR)-9,10-dimethoxy-3-(2-methylpropyl)-1H,2H,3H,4H,6H,7H,11bH-pyrido[2,1-a]isoquinolin-2-yl]methoxy}carbonyl)amino]butanoic acid]
25 | > 500 | + | COc1cc2c(cc1OC)[C@H]1C[C@@H](COC(=O)N3CCC[C@@H](C(=O)O)C3)[C@H](CC(C)C)CN1CC2 [Compound 5-54, (3R)-1-({[(2R,3S,11bR)-9,10-dimethoxy-3-(2-methylpropyl)-1H,2H,3H,4H,6H,7H,11bH-pyrido[2,1-a]isoquinolin-2-yl]methoxy}carbonyl)piperidine-3-carboxylic acid]
